Data reported in paper PMC3369547, “Antimicrobial Constituents of Artemisia afra Jacq. ex Willd. against Periodontal Pathogens” (Evidence-based Complementary and Alternative Medicine : eCAM, 2012).
Values after ≈ are worked out from the molar mass of the structure shown. Read-outs that look alike come from different tables or passages of the source.

Assays:
Candida albicans (Med I) = assay: Microdilution MIC/MMC (INT) against Candida albicans; assay type: cell-based; conditions: C.a, Yeast, table title says mg/mL; for MBC: MMC in title
Experimental: (§1) The microorganisms used in this study include Actinomyces naeslundii (ATCC 19039), Actinomyces israelii (ATCC 10049), Aggregatibacter actinomycetemcomitans (ATCC 33384), Candida albicans (Med I), Porphyromonas gingivalis (ATCC 33277), Prevotella intermedia (ATCC 25611), and Streptococcus mutans (ATCC 25175). Bacteria were grown in the Casein-peptone Soy Agar medium (CASO) (Merck SA (Pty) Ltd.) under anaerobic conditions in a jar with anaerocult A (Merck SA (Pty) Ltd.), at 37°C for 48 hours. Sabouraud Dextrose Agar medium (SDA) (Merck SA (Pty) Ltd.) was used for the culturing of Candida albicans and incubated at 37°C for 24 hours under aerobic conditions. Subculturing was done once weekly.
(§2) The microdilution technique using 96-well microplates was used to obtain the MIC and MMC values of the crude extract against microorganisms under study. The extract was serially diluted in the 96-well plate with 48 hours old microorganisms (5 × 10^6 CFU/mL) grown at 37°C and the final concentration of extract and positive control (CHX) ranged from 25.0 mg/mL to 0.8 mg/mL. Microbial growth was indicated by adding 40 μL of (0.2 mg/mL) p-iodonitrotetrazolium violet (INT) (Sigma-Aldrich, South Africa) to microplate wells and incubated at 37°C for 48 hours. MIC was defined as the lowest concentration that inhibited the colour change of INT. […] These suspensions were reincubated at 37°C for 48 hours. The MMC was determined as the lowest concentration of extract which inhibited 100% growth of microorganisms.

[1] = tested on: Actinomyces israelii (ATCC 10049); assay: Microdilution MIC/MMC (INT) against Actinomyces israelii; assay type: cell-based; conditions: A.i, Gram +ve, table title says mg/mL; for MBC: MMC in title
Experimental: as §1, §2

[2] = tested on: Prevotella intermedia (ATCC 25611); assay: Microdilution MIC/MMC (INT) against Prevotella intermedia; assay type: cell-based; conditions: P.i, Gram –ve, table title says mg/mL; for MBC: MMC in title
Experimental: as §1, §2

[3] = tested on: Actinomyces naeslundii (ATCC 19039); assay: Microdilution MIC/MMC (INT) against Actinomyces naeslundii; assay type: cell-based; conditions: A.n, Gram +ve, table title says mg/mL; for MBC: MMC in title
Experimental: as §1, §2

[4] = tested on: Porphyromonas gingivalis (ATCC 33277); assay: Microdilution MIC/MMC (INT) against Porphyromonas gingivalis; assay type: cell-based; conditions: P.g, Gram –ve, table title says mg/mL; for MBC: MMC in title
Experimental: as §1, §2

[5] = tested on: Aggregatibacter actinomycetemcomitans (ATCC 33384); assay: Microdilution MIC/MMC (INT) against Aggregatibacter actinomycetemcomitans; assay type: cell-based; conditions: A.a, Gram –ve, table title says mg/mL; for MBC: MMC in title
Experimental: as §1, §2

oral microorganisms = assay: Microdilution MIC/MMC, summary over tested microbial species; assay type: cell-based; conditions: against A. israelii and A. naeslundii
Experimental: as §1, §2

McCoy fibroblast cells = assay: XTT cell proliferation (cytotoxicity) assay on McCoy cells; assay type: cell-based; conditions: McCoy cells, XTT, 48 h
Experimental: (§3) Extract and compounds were dissolved in dimethyl sulfoxide (DMSO) and stored at −20°C. All tested compounds were diluted to the final concentration with RPMI 1640 and control cultures were diluted with 0.1% DMSO.
(§4) McCoy cells were maintained in monolayer culture at 37°C and 5% CO2 with 10% […] Medium, 10 μg/mL of penicillin, 10 μg/mL, streptomycin, 40 μg/mL gentamycin, and 0.25 μg/mL fungizone.
(§5) A microtiter plate with McCoy cells was used for testing all the ethanol extracts for cytotoxicity following the method of [26]. Cytotoxicity was measured by the XTT (sodium 3′-[1-(phenyl amino-carbonyl)-3,4-tetrazolium]-bis-[4-methoxy-6-nitro] benzene sulfonic acid hydrate) method using a cell proliferation kit II (Roche Diagnostics GmbH). Hundred microlitres of McCoy cells (1 × 10^5 mL) was seeded onto a microtiter plate and incubated for 24 h to allow the cells to attach to the bottom of the plate. Dilution series were made of the extract and compound and the various concentrations (400 to 3.1 μg/mL) were added to the microtitre plate and incubated for 48 h. The XTT reagents were added to a final concentration of 0.3 mg/mL and the cells were incubated for 1-2 hours. The positive drug control (Zearalenone) at concentrations range of (10 μg/mL to 0.6 μg/mL) was included in the assay. After incubation the absorbance of the colour was spectrophotometrically quantified using an ELISA plate reader, which measured the optical density at 490 nm with a reference wavelength of 690 nm. The assay was carried out in triplicate.

[6] = DPPH free radical scavenging assay; assay type: biochemical; conditions: 37°C, 30 min, 517 nm
Experimental: The free radical scavenging activity was measured using 1, 1 diphenyl-2-picryl-hydraxyl (DPPH) assay with slight modifications. The ethanol extract of A. afra and Vitamin C (positive control) 1000 μg/mL (20 μL) was added in the first three wells of a 96-well plate containing 200 μL of distilled water to make up final concentration of 100 μg/mL and the remaining wells were filled with 110 μL of distilled water. The first raws containing the extract/compounds were serially diluted to wells which contain 110 μL of distilled water, and later, 90 μL of methanolic solution of DPPH ([…]) was added to all the wells. The final concentrations of the extract/compounds ranged from 100 to 0.8 μg/mL. The plates were incubated at 37°C for 30 min and the absorbance was measured at 517 nm using the ELISA plate reader. The percent radical scavenging activity by A. afra was determined by comparison with ethanol (blank). The inhibition ratio was calculated as follows: % DPPH radical-scavenging = (AC-AS)/AC × 100, where AC is absorbance of the control solution (containing only DPPH solution), and AS is the absorbance of the sample in DPPH solution. The percentage of DPPH radical-scavenging was plotted against the plant extract/compounds concentrations (μg/mL) to determine the concentration of extract/compound required to scavenge DPPH by 50% (EC50).

[7] = XTT cell proliferation (cytotoxicity) assay on McCoy cells; assay type: cell-based; conditions: mouse; McCoy cells, XTT, 48 h; read-out: IC50 (cytotoxicity)
Experimental: as §3, §4, §5

[8] = tested on: murine melanoma B16 cell line; set-up: method as in PMID 15363977; conditions: B16 cells; cited from earlier work
[9] = Actinomyces israelii, ATCC10049, read-out: MIC
[10] = Actinomyces naeslundii, ATCC19039
[11] = Porphyromonas gingivalis, ATCC33277
[12] = Prevotella intermedia, ATCC25611
[13] = Aggregatibacter actinomycetemcomitans, ATCC33384

| Molecule | MBC (Candida albicans (Med I)) | MIC (Candida albicans (Med I)) | MBC [1] | MIC [1] | MBC [2] | MIC [2] | MBC [3] | MIC [3] | MBC [4] | MIC [4] | MBC [5] | MIC [5] | MIC [1, 9] | MBC [3, 10] | MIC [4, 11] | DPPH scavenging IC50 [6] | other results |
| --- | --- | --- | --- | --- | --- | --- | --- | --- | --- | --- | --- | --- | --- | --- | --- | --- | --- |
| phytol [compound 5] | > 1 mg/mL | > 1 mg/mL | >1.0 µg/mL | >1.0 µg/mL | > 1000 µg/mL | >1.0 µg/mL | >1.0 µg/mL | >1.0 µg/mL | > 1 mg/mL | >1.0 µg/mL | > 1 mg/mL | > 1 mg/mL | – | – | – | – | – |
| [H]/N=C(\N/C(=N/[H])NCCCCCCNC(=N)NC(=N)Nc1ccc(Cl)cc1)Nc1ccc(Cl)cc1 [Chlorhexidine, chlorhexidine, reference compound] | – | – | – | – | – | – | – | – | – | – | – | – | 6.3 µg/mL (≈ 12.5 µM) | 1600 µg/mL (≈ 3170 µM) | 1600 µg/mL (≈ 3170 µM) | – | MBC (Candida albicans (Med I); read-out: MBC): 0.00125 mg/mL (≈ 2.47 µM); MIC (Candida albicans (Med I); read-out: MIC): 0.0063 mg/mL (≈ 12.5 µM); MBC ([1]; Actinomyces israelii, ATCC10049, read-out: MBC): 6.3 µg/mL (≈ 12.5 µM); MBC ([2]; Prevotella intermedia, ATCC25611, read-out: MBC): 6.3 µg/mL (≈ 12.5 µM); MIC ([2]; Prevotella intermedia, ATCC25611, read-out: MIC): 6.3 µg/mL (≈ 12.5 µM); MIC [3, 10]: 1600 µg/mL (≈ 3170 µM); MBC ([4]; Porphyromonas gingivalis, ATCC33277, read-out: MBC): 0.0016 mg/mL (≈ 3.17 µM); MBC ([5]; Aggregatibacter actinomycetemcomitans, ATCC33384, read-out: MBC): 0.0016 mg/mL (≈ 3.17 µM); MIC ([5]; Aggregatibacter actinomycetemcomitans, ATCC33384, read-out: MIC): 0.0016 mg/mL (≈ 3.17 µM) |
| scopoletin [compound 3] | > 1 mg/mL | > 1 mg/mL | 500 µg/mL | 250 µg/mL | 1.0 µg/mL | 500 µg/mL | >1.0 µg/mL | 1000 µg/mL | > 1 mg/mL | >1.0 µg/mL | > 1 mg/mL | > 1 mg/mL | – | – | – | 1.24 µg/mL | lowest MIC and MMC value (oral microorganisms): 0.25 mg/mL; IC50 (cytotoxicity) (McCoy fibroblast cells): 132.5 µg/mL |
| C=C(C)[C@@H]1CC[C@]2(C(=O)O)CC[C@]3(C)[C@H](CC[C@@H]4[C@@]5(C)CC[C@H](O)C(C)(C)[C@@H]5CC[C@]43C)[C@@H]12 [compound 6, betulinic acid] | > 1 mg/mL | > 1 mg/mL | – | – | – | – | – | – | – | – | – | – | 1 µg/mL (≈ 2.19 µM) | 500 µg/mL (≈ 1090 µM) | 1000 µg/mL (≈ 2190 µM) | 2.42 µg/mL | MBC ([1]; Actinomyces israelii, ATCC10049): 1000 µg/mL (≈ 2190 µM); MIC (oral microorganisms; read-out: lowest MIC and MMC value): 250 µg/mL (≈ 547 µM); MBC [2, 12]: > 1000 µg/mL; MIC [2, 12]: 1000 µg/mL (≈ 2190 µM); IC50 at 48 h [7]: 31 µg/mL (≈ 67.8 µM); MIC ([3]; Actinomyces naeslundii, ATCC19039, read-out: MIC): 0.25 µg/mL (≈ 0.547 µM); IC50 apoptotic effects [8]: 22.5 µg/mL (≈ 49.3 µM); MBC [4, 11]: > 1 mg/mL; MBC [5, 13]: > 1 mg/mL; MIC [5, 13]: > 1 mg/mL |
